The values below come from US20100004234A1, “SPECIFIC KINASE INHIBITORS” (Kosan Biosciences Incorporated, priority 2004, published 2010).

The test system of assay [1] is SKOV3 (ovarian cancer cell line, wild-type B-Raf). The assay is described as follows: Cell proliferation assay. Conditions: Homo sapiens, SK-OV-3, read-out: Cell Line IC50 SKOV3. Type of assay: cell-based. Here is the method:
In one illustrative method, cells are treated with various concentrations of the inhibitor in 96 well plates, incubated at 37° C./5% CO2 for three days, and analyzed using the Cell Titer Glo kit (Promega).
COLO829 is a human melanoma cell line. HT29 is a human colon cancer cell line. Both cell lines have a V600E B-Raf mutation. SKOV3 is an ovarian cancer cell line having wild-type B-Raf. EKR2 (extra-cellular signal regulated kinase 2) is a kinase in the Ras/B-Raf MAP kinase cascade pathway.

In assay [2] the target is ERK2 (UniProt P28482). Type of assay: biochemical. More on the design: other: calculated for 0.1 μM for ~10 minutes; Ki; other: ERK2; kinact/Ki; "the target Cys 172 residue. The method, then:
In either case, the time dependent inactivation can be dampened by the presence of a competing substrate, in this case ATP.
For covalent inhibitors, plots of log (activity) versus time provide apparent first-order rate constants (kobsd) of enzyme activity loss. If these assays are performed at varying concentrations of inhibitor, a series of first-order plots is obtained and kobsd obtained at each inhibitor concentration. […] Such molecules may be competitive inhibitors but should not show time-dependent inactivation.
Inhibition progress curve analysis was performed using continuous, colorimetric, or fluorimetric assays. All experiments were done at 1 mM ATP, with the exception of KDR (at 5 mM ATP).
MEK1 assays were performed using pre-incubation experiments with radioactive [^32P]ATP and filter binding of product. All other kinases were analyzed using progress curve analysis from a continuous spectrophotometric assay.

As to `COc1cc(O)c2c(c1)[C@H]1O[C@@H]1C[C@H](O)[C@H](O)C(=O)/C=C\C[C@H](C)OC2=O` [Hypothemycin, hypothemycin], the IC50 in assay [1] was roughly 4 µM. Besides, in assay [2] (ERK2), the Ki was 2 µM and the kinact/Ki was 1.9E+03. Moreover, in assay [2] (calculated for 0.1 μM for ~10 minutes), the ERK activity inhibited is listed as less than 5%.

One may read the IC50 as the midpoint of a concentration-inhibition curve. As a reminder, the Ki is a dissociation constant, usually derived from enzyme kinetics or from competition with a known ligand.
